Measured values published in patent publication US20240343733A1, “COMPOUNDS FOR TARGETING DEGRADATION OF IRAK4 PROTEINS” (BIOGEN MA INC., priority 2021, published 2024).

Biological target: T1, IRAK4 (Homo sapiens, UniProt Q9NWZ3)
T1 construct: 293Tcells expressing HiBiT-tagged IRAK4 were then added into 384-well plates
T1 sequence (Q9NWZ3 1-460): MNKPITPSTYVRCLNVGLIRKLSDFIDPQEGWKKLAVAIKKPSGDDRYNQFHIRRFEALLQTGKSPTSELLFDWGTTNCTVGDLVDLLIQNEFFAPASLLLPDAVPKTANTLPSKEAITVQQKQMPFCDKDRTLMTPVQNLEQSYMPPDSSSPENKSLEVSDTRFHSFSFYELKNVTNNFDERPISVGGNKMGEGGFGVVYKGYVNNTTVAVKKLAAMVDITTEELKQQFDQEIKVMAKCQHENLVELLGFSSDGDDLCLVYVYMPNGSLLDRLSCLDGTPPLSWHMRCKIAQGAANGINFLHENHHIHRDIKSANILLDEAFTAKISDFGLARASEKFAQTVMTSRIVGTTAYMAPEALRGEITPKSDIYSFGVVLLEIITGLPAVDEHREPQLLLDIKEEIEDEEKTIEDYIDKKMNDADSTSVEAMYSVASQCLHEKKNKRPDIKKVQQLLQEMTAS
Assay: IRAK4 Degradation Assay, HiBiT Method
Type: cell-based
Settings: 293T cells expressing HiBiT-tagged IRAK4, 6 hours
Method in brief: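 Luminescent read-out with Nano-Glo HiBiT lytic reagent after 6 h compound exposure at 37 °C. Cells were HiBiT-IRAK4 knock-in 293T (C-terminal tag), 10,000 per well. Compounds ran as 11-point half-log dilutions from […] highest dose, duplicate wells; DMSO served as negative control.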

DC50 [nM]	SMILES
500 to 1000	CC(C)Oc1cc2nc([C@H]3CC[C@H](CN4CCC(c5ccc(C6CCC(=O)NC6=O)cc5)CC4)CC3)cn2cc1C(=O)Nc1cccc(C(F)(F)F)n1 (stereo partly shown) [Example 4, 2-[4-[[4-[4-(2,6-dioxo-3-piperidyl)phenyl]-1-piperidyl]methyl]cyclohexyl]-7-isopropoxy-N-[6-(trifluoromethyl)-2-pyridyl]imidazo[1,2-a]pyridine-6-carboxamide]
< 10	CC(C)Oc1cc2nn([C@H]3CC[C@H](CN4CCC(c5ccc(OC6CCC(=O)NC6=O)cc5)CC4)CC3)cc2cc1C(=O)Nc1cccn([C@H]2C[C@H]2F)c1=O (stereo partly drawn) [Example 141, 2-((1r,4S)-4-((4-(4-((2,6-dioxopiperidin-3-yl)oxy)phenyl)piperidin-1-yl)methyl)cyclohexyl)-N-(1-((1S,2R)-2-fluorocyclopropyl)-2-oxo-1,2-dihydropyridin-3-yl)-6-isopropoxy-2H-indazole-5-carboxamide]
100 to 500	CC(C)Oc1cc2nc([C@H]3CC[C@H](CN(C)C4CCN(c5ccc(C6CCC(=O)NC6=O)cc5)CC4(F)F)CC3)cn2cc1C(=O)Nc1cccc(C(F)F)n1 (stereo partly shown) [Example 42, N-[6-(difluoromethyl)-2-pyridyl]-2-[4-[[[1-[4-(2,6-dioxo-3-piperidyl)phenyl]-3,3-difluoro-4-piperidyl]-methyl-amino]methyl]cyclohexyl]-7-isopropoxy-imidazo[1,2-a]pyridine-6-carboxamide]
< 10	Cc1cnc2c(NC(=O)c3cn4cc([C@H]5CC[C@H](CN6CCC(c7ccc8c(c7)n(C)c(=O)n8C7CCC(=O)NC7=O)CC6)CC5)nc4cc3OC(C)C)cnn2c1 (stereo partly shown) [Example 51, 2-[4-[[4-[1-(2,6-dioxo-3-piperidyl)-3-methyl-2-oxo-benzimidazol-5-yl]-1-piperidyl]methyl]cyclohexyl]-7-isopropoxy-N-(6-methylpyrazolo[1,5-a]pyrimidin-3-yl)imidazo[1,2-a]pyridine-6-carboxamide]
< 10	CC(C)Oc1cc2nc(C3CCN(C(=O)CN4CCN(c5ccc(C6CCC(=O)NC6=O)cn5)CC4)CC3)cn2cc1C(=O)Nc1cccn([C@H]2C[C@H]2F)c1=O (stereo partly drawn) [Example 163, 2-(1-(2-(4-(5-(2,6-dioxopiperidin-3-yl)pyridin-2-yl)piperazin-1-yl)acetyl)piperidin-4-yl)-N-(1-((1S,2R)-2-fluorocyclopropyl)-2-oxo-1,2-dihydropyridin-3-yl)-7-isopropoxyimidazo[1,2-a]pyridine-6-carboxamide]
10 to 100	CC(C)Oc1cc2nc(C3CCN(CC(F)=C4CCN(c5ccc(NC6CCC(=O)NC6=O)cc5)CC4)CC3)cn2cc1C(=O)Nc1cccc(C(F)F)n1 (stereo not shown) [Example 111, N-(6-(difluoromethyl)pyridin-2-yl)-2-(1-(2-(1-(4-((2,6-dioxopiperidin-3-yl)amino)phenyl)piperidin-4-ylidene)-2-fluoroethyl)piperidin-4-yl)-7-isopropoxyimidazo[1,2-a]pyridine-6-carboxamide]
10 to 100	CC(C)Oc1cc2nc(C3CCN(CC(=O)N4CCC(c5cc(F)c(C6CCC(=O)NC6=O)cc5F)CC4)CC3)cn2cc1C(=O)Nc1cccc(C(F)F)n1 (stereo not shown) [Example 97, N-[6-(difluoromethyl)-2-pyridyl]-2-[1-[2-[4-[4-(2,6-dioxo-3-piperidyl)-2,5-difluoro-phenyl]-1-piperidyl]-2-oxo-ethyl]-4-piperidyl]-7-isopropoxy-imidazo[1,2-a]pyridine-6-carboxamide]
10 to 100	CC(C)Oc1cc2nc(C3CCN(C(=O)CC4CCN(c5ccc6c([C@H]7CCC(=O)NC7=O)nn(C)c6c5)CC4)CC3)cn2cc1C(=O)Nc1cccc(C(F)F)n1 [Example 91, (R)—N-(6-(difluoromethyl)pyridin-2-yl)-2-(1-(2-(1-(3-(2,6-dioxopiperidin-3-yl)-1-methyl-1H-indazol-6-yl)piperidin-4-yl)acetyl)piperidin-4-yl)-7-isopropoxyimidazo[1,2-a]pyridine-6-carboxamide]
< 10	CC(C)Oc1cc2nc([C@H]3CC[C@H](CNCC4(O)CCN(c5ncc(C6CCC(=O)NC6=O)cc5F)CC4)CC3)cn2cc1C(=O)Nc1cnn2cccnc12 (stereo partly shown) [Example 176]
100 to 500	CC(C)Oc1cc2nc([C@H]3CC[C@H](CN4CCC(c5cc6c(cc5F)c(N5CCC(=O)NC5=O)nn6C)C(F)(F)C4)CC3)cn2cc1C(=O)Nc1cccc(C(F)F)n1 (stereo partly shown) [Example 33, N-[6-(difluoromethyl)-2-pyridyl]-2-[4-[[4-[3-(2,4-dioxohexahydropyrimidin-1-yl)-5-fluoro-1-methyl-indazol-6-yl]-3,3-difluoro-1-piperidyl]methyl]cyclohexyl]-7-isopropoxy-imidazo[1,2-a]pyridine-6-carboxamide]
10 to 100	CC(C)Oc1cc2nc([C@H]3CC[C@H](CN4CC5(CCN(c6ncc(N7CCC(=O)NC7=O)cc6F)CC5)C4)CC3)cn2cc1C(=O)Nc1cccn(C2CC2)c1=O [Example 190]
500 to 1000	CC(C)Oc1cc2nc([C@H]3CC[C@H](CN(C)C4CCN(Cc5cccc(NC6CCC(=O)NC6=O)c5)CC4)CC3)cn2cc1C(=O)Nc1cccc(C(F)(F)F)n1 (stereo partly shown) [Example 14, 2-[4-[[[1-[[3-[(2,6-dioxo-3-piperidyl)amino]phenyl]methyl]-4-piperidyl]-methyl-amino]methyl]cyclohexyl]-7-isopropoxy-N-[6-(trifluoromethyl)-2-pyridyl]imidazo[1,2-a]pyridine-6-carboxamide]
10 to 100	CC(C)Oc1cc2nc([C@H]3CC[C@H](CN4CCC(c5cc6c(cc5F)c(N5CCC(=O)NC5=O)nn6C)C(F)(F)C4)CC3)cn2cc1C(=O)Nc1cccn([C@H]2C[C@H]2F)c1=O (stereo partly shown) [Example 172, 2-((1r, 4S)-4-((4-(3-(2,4-dioxotetrahydropyrimidin-1 (2H)-yl)-5-fluoro-1-methyl-1H-indazol-6-yl)-3,3-difluoropiperidin-1-yl)methyl)cyclohexyl)-N-(1-((1 S, 2R)-2-fluorocyclopropyl)-2-oxo-1,2-dihydropyridin-3-yl)-7-isopropoxyimidazo[1,2-a]pyridine-6-carboxamide]
500 to 1000	CC(C)Oc1cc2nc([C@H]3CC[C@H](CN4CCC(c5ccc6c(c5)n(C)c(=O)n6C5CCC(=O)NC5=O)CC4)CC3)cn2cc1C(=O)Nc1cccc(C(F)(F)F)n1 (stereo partly shown) [Example 5, 2-[4-[[4-[1-(2,6-dioxo-3-piperidyl)-3-methyl-2-oxo-benzimidazol-5-yl]-1-piperidyl]methyl]cyclohexyl]-7-isopropoxy-N-[6-(trifluoromethyl)-2-pyridyl]imidazo[1,2-a]pyridine-6-carboxamide]
10 to 100	CC(C)Oc1cc2nc(C3CCN(CC(=O)N4CCC(c5ccc(C6(F)CCC(=O)NC6=O)cc5)CC4)CC3)cn2cc1C(=O)Nc1cccc(C(F)F)n1 (stereo not shown) [Example 101, N-[6-(difluoromethyl)-2-pyridyl]-2-[1-[2-[4-[4-(3-fluoro-2,6-dioxo-3-piperidyl)phenyl]-1-piperidyl]-2-oxo-ethyl]-4-piperidyl]-7-isopropoxy-imidazo[1,2-a]pyridine-6-carboxamide]
10 to 100	CC(C)Oc1cc2nc([C@H]3CC[C@H](CN4CCN(c5ccc(C6CCC(=O)NC6=O)cn5)CC4)CC3)cn2cc1C(=O)Nc1cccn([C@H]2C[C@H]2F)c1=O (stereo partly drawn) [Example 180, 2-((1r,4S)-4-((4-(5-(2,6-dioxopiperidin-3-yl)pyridin-2-yl)piperazin-1-yl)methyl)cyclohexyl)-N-(1-((1S,2R)-2-fluorocyclopropyl)-2-oxo-1,2-dihydropyridin-3-yl)-7-isopropoxyimidazo[1,2-a]pyridine-6-carboxamide]
